Reference: ChEMBL document CHEMBL1154629, “Design, synthesis and biological evaluation of novel thiazole derivatives as potent FabH inhibitors” (Bioorg Med Chem Lett, 2009)
In brackets after ≈: the same amount, converted by molar mass.

Tests used:
[1] = test system: Escherichia coli; assay: Antimicrobial activity Escherichia coli ATCC 35218 by MTT assay
[2] = test system: Enterobacter cloacae; assay: Antimicrobial activity Enterobacter cloacae ATCC 13047 by MTT assay; format: functional
[3] = test system: Staphylococcus aureus; assay: Antimicrobial activity Staphylococcus aureus ATCC 6538 by MTT assay; format: functional
[4] = test system: Pseudomonas aeruginosa; assay: Antimicrobial activity Pseudomonas aeruginosa ATCC 13525 by MTT assay
[5] = test system: Enterococcus faecalis; assay: Antimicrobial activity Streptococcus faecalis ATCC 9790 by MTT assay; format: functional
[6] = test system: Bacillus subtilis; assay: Antimicrobial activity Bacillus subtilis ATCC 6633 by MTT assay; format: functional
[7] = Toxicity in erythrocytes assessed as hemolysis; format: cell-based; details: erythrocyte
[8] = molecular target: T1, 3-oxoacyl-[acyl-carrier-protein] synthase 3 (Escherichia coli, UniProt C3TDZ2); assay: Inhibition of Escherichia coli FabH
T1 sequence (C3TDZ2 whole entry): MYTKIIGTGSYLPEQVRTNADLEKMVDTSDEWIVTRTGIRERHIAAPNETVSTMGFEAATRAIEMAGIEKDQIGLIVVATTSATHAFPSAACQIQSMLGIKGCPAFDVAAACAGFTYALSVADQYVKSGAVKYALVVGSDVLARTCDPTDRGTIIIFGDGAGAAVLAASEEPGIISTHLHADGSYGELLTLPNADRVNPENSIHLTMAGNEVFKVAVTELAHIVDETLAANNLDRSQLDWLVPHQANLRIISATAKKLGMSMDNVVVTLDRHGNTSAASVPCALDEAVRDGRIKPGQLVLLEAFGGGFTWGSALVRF

SMILES	MIC [1] [µg/mL]	MIC [2] [µg/mL]	MIC [3] [µg/mL]	MIC [4] [µg/mL]	MIC [5] [µg/mL]	MIC [6] [µg/mL]	LC30 [7] [µg/mL]	IC50 [8] [µM]
CC1(C)S[C@@H]2[C@H](NC(=O)Cc3ccccc3)C(=O)N2[C@H]1C(=O)O [PENICILLIN G]	6.25 (≈ 18.7 µM)	3.12 (≈ 9.35 µM)	1.56 (≈ 4.67 µM)	6.25 (≈ 18.7 µM)	1.56 (≈ 4.67 µM)	1.56 (≈ 4.67 µM)	–	–
Oc1ccc(Cl)cc1/C=N/Nc1nc(-c2ccc(Cl)cc2)cs1	–	12.5 (≈ 34.3 µM)	12.5 (≈ 34.3 µM)	12.5 (≈ 34.3 µM)	25 (≈ 68.6 µM)	6.25 (≈ 17.2 µM)	> 10000	11.7
Oc1ccc(Br)cc1/C=N/Nc1nc(-c2ccc(Cl)c(Cl)c2)cs1	–	12.5 (≈ 28.2 µM)	25 (≈ 56.4 µM)	12.5 (≈ 28.2 µM)	> 50	12.5 (≈ 28.2 µM)	> 10000	43.4
Cc1ccc(/C=N/Nc2nc(-c3ccc(Cl)cc3)cs2)cc1	–	6.25 (≈ 19.1 µM)	25 (≈ 76.3 µM)	25 (≈ 76.3 µM)	12.5 (≈ 38.1 µM)	6.25 (≈ 19.1 µM)	–	–
Clc1ccc(-c2csc(N/N=C/c3ccc(Br)cc3)n2)cc1	–	12.5 (≈ 31.8 µM)	12.5 (≈ 31.8 µM)	> 50	25 (≈ 63.7 µM)	12.5 (≈ 31.8 µM)	–	–
Fc1ccc(/C=N/Nc2nc(-c3ccc(Cl)c(Cl)c3)cs2)cc1	25 (≈ 68.3 µM)	25 (≈ 68.3 µM)	0.78 (≈ 2.13 µM)	25 (≈ 68.3 µM)	6.25 (≈ 17.1 µM)	6.25 (≈ 17.1 µM)	–	–
COc1ccc(/C=N/Nc2nc(-c3ccc(Cl)c(Cl)c3)cs2)cc1	–	6.25 (≈ 16.5 µM)	25 (≈ 66.1 µM)	25 (≈ 66.1 µM)	> 50	25 (≈ 66.1 µM)	–	–
Cc1ccc(/C=N/Nc2nc(-c3ccc(Cl)c(Cl)c3)cs2)cc1	25 (≈ 69 µM)	12.5 (≈ 34.5 µM)	25 (≈ 69 µM)	25 (≈ 69 µM)	> 50	> 50	–	–
NC[C@H]1O[C@H](O[C@H]2[C@H](O)[C@@H](O[C@H]3O[C@H](CO)[C@@H](O)[C@H](N)[C@H]3O)[C@H](N)C[C@@H]2N)[C@H](N)[C@@H](O)[C@@H]1O [BEKANAMYCIN]	3.12 (≈ 6.46 µM)	1.56 (≈ 3.23 µM)	1.56 (≈ 3.23 µM)	3.12 (≈ 6.46 µM)	3.12 (≈ 6.46 µM)	0.39 (≈ 0.807 µM)	–	–
Oc1ccc(Br)cc1/C=N/Nc1nc(-c2ccccc2)cs1	–	25 (≈ 66.8 µM)	25 (≈ 66.8 µM)	25 (≈ 66.8 µM)	12.5 (≈ 33.4 µM)	12.5 (≈ 33.4 µM)	–	–
Cc1ccc(/C=N/Nc2nc(-c3ccccc3)cs2)cc1	–	> 50	25 (≈ 85.2 µM)	25 (≈ 85.2 µM)	> 50	> 50	–	–
Oc1c(Br)cc(Br)cc1/C=N/Nc1nc(-c2ccc(Cl)cc2)cs1	–	6.25 (≈ 12.8 µM)	25 (≈ 51.3 µM)	25 (≈ 51.3 µM)	> 50	> 50	> 10000	78.4
Oc1ccc(Cl)cc1/C=N/Nc1nc(-c2ccc(Cl)c(Cl)c2)cs1	–	> 50	12.5 (≈ 31.4 µM)	12.5 (≈ 31.4 µM)	12.5 (≈ 31.4 µM)	> 50	> 10000	39.6
Fc1ccc(/C=N/Nc2nc(-c3ccccc3)cs2)cc1	–	> 50	6.25 (≈ 21 µM)	12.5 (≈ 42 µM)	> 50	12.5 (≈ 42 µM)	–	–
